Results on 35 molecules are retold here after patent US20030187007A1, “Inhibitors of protein kinase for the treatment of disease” (priority 2001, published 2003).

What all share (type): biochemical
One test has as its target KDR (Homo sapiens, UniProt P35968). The experiment in a line: Enzyme assay for  (KDR), IC50 determination. The note with it: 50 nM KDR, 500 μM ATP. The protocol:
Enzyme assays for IC50 determinations were performed in 96-well titer plates, in a total reaction volume of 50 μL. Each reaction contained 1.5 μL of appropriate dilutions of inhibitor, 50 mM Hepes, pH 7.4, 1 mM DTT, 10 mM magnesium chloride, 2 mM phospho-poly(E4Y) (Sigma Chemical Company), 500 μM unlabeled ATP, 0.0025 μM [^33P]ATP (Amersham Pharmacia Biotech), and 50 nM KDR. All components except KDR were added to the wells, and the reaction was started by the addition of the enzyme. The reactions were mixed and incubated at room temperature for 1 hr, after which the reactions were quenched by the addition of 50 μL of 8% phosphoric acid. At this point, 90 μL aliquots of the samples were applied to positively charged DEAE 96-well filter plates (Millipore Corporation MADENOB10). The plates were incubated for 30 min at room temperature. The samples were aspirated and the wells were washed 3 times with 200 μL of 0.5% phosphoric acid. To each well, 50 μL of scintillation cocktail was added and counted for 60 sec in a TopCount microplate scintillation counter (Packard Instrument Company). The concentration of a compound that inhibited the activity of KDR by 50% (IC50) was determined based its inhibition curve.

Test [1] deals with CDK2 complexed with cyclin A (Homo sapiens, UniProt P24941). The experiment in a line: Cyclin dependent kinase activity assay, phosphorylation of synthetic peptide PKTPKKAKKLRRR
The conditions noted are these: 0.1 mM ATP, read-out: CDK 2 Activity*. The protocol:
(§1) The assay of cyclin dependent kinase activity was determined by monitoring the phosphorylation of a synthetic peptide, PKTPKKAKKLRRR. The assay mixture contained 0.1 mM cold ATP, ^33P-γ-ATP (2000-4000 cpm/μL), 0.1 mM peptide, 1 mM DTT, and 10 mM MgCl2 in 100 mM HEPES buffer pH 7.4. The assay mixture, along with inhibitor and CDK enzyme (0.3-0.4 U/mL; either CDK5 complexed with p25, CDK2 complexed with complexed with cyclin A), was mixed together in a microtiter plate in a final volume of 40 μL, sealed and incubated for 2 hours at 30° C. Following incubation, a 15 μL aliquot was added to a Whatman P81 filtration plate containing 100 μL 0.5% phosphoric acid. This mixture was allowed to stand for 5 minutes prior to filtration on a vacuum manifold. The filter plate was washed with 5 successive additions of 300 μL 0.5% phosphoric acid. The filtration plate was air dried for 10 minutes before sealing the bottom. After addition of scintillation fluid to the sealed plate, phosphorylated peptide was quantified in a scintillation counter.

For another test, the target named is CDK5 complexed with p25 (Homo sapiens, UniProt Q00535). The description is as above. The conditions noted are these: CDK5 complexed with p25, 0.1 mM ATP; read-out: CDK 5 Activity*. As for the experimental part:
as §1

Molecules are shown by their SMILES. Counter-ions that a name gives are not always drawn.

KDR, sequence (P35968 20-1356): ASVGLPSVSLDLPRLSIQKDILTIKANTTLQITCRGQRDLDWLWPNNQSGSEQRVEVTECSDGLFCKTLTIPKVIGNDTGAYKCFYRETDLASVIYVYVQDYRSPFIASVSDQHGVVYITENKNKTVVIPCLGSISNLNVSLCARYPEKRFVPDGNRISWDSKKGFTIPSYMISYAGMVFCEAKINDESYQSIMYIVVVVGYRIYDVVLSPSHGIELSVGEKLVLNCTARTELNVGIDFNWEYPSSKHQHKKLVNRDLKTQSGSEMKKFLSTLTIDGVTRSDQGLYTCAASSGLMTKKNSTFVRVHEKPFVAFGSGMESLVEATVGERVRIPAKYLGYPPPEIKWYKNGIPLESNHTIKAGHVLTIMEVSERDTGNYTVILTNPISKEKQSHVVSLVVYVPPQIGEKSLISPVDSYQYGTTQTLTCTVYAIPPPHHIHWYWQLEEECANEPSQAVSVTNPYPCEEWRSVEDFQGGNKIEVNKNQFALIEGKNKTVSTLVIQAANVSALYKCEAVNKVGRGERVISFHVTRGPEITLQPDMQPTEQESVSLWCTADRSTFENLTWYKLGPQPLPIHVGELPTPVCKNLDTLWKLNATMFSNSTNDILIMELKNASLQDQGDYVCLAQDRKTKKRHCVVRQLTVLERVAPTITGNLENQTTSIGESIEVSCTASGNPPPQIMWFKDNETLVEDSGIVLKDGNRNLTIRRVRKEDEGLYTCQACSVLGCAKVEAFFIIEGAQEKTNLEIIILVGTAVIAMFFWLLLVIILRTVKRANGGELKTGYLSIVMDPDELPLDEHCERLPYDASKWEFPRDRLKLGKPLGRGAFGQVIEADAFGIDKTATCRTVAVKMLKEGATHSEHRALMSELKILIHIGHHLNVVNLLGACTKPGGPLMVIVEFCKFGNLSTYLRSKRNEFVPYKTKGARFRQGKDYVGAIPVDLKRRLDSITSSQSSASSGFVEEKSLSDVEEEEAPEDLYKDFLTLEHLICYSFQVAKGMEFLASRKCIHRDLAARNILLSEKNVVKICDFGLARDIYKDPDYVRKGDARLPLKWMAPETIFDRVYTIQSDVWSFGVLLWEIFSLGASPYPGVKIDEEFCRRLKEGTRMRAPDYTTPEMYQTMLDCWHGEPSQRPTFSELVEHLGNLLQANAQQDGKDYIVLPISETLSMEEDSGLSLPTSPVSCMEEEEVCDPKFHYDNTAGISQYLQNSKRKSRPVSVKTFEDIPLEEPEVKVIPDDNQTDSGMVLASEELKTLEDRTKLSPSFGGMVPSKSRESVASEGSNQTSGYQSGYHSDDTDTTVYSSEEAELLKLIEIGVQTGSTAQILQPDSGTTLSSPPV
CDK5 complexed with p25, sequence (Q00535 whole entry): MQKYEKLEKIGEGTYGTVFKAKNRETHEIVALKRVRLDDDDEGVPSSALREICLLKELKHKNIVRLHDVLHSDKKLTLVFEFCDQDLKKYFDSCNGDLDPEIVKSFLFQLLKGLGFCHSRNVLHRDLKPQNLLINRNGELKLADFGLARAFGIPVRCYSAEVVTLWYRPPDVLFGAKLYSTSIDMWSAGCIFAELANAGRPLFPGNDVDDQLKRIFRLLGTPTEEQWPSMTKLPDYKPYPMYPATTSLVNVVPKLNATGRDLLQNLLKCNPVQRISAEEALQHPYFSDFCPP
CDK5 complexed with p25, sequence (Q15078 99-307 partner limits assumed): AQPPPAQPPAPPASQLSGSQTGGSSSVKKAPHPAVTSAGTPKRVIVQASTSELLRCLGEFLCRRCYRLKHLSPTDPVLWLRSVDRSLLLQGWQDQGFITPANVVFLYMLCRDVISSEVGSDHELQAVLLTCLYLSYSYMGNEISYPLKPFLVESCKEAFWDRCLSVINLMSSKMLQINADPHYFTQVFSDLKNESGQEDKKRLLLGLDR

In turn, `Nc1nc(-c2ccc3[nH]ccc3c2)cc(-c2cc(-c3ccc(O)cc3)ccc2O)n1` [Example 114] displayed an IC50 at KDR of less than 1000 nM.
Still for that read-out and setting: to `CN1CCN(c2cc(-c3cc(-c4ccc(O)cc4)ccc3O)nc(N)n2)CC1` [Example 104, 3-[2-Amino-6-(4-methyl-piperazin-1-yl)-pyrimidin-4-yl]-biphenyl-4.4′-diol] belongs 1000 to 20000 nM.
The same measure, in the same setting: to `Nc1nc(N[C@@H](CO)c2ccccc2)cc(-c2cc(-c3ccc(O)cc3)ccc2O)n1` [Example 112, 3-[2-Amino-6-(2-hydroxy-1-phenyl-ethylamino)-pyrimidin-4-yl]-biphenyl-4,4′-diol] belongs less than 1000 nM; to `COc1ccc(CNc2cc(-c3cc(-c4ccc(O)cc4)ccc3O)nc(N)n2)cc1` [Example 118, 3-[2-Amino-6-(4-methoxy-benzylamino)-pyrimidin-4-yl]-biphenyl-4,4′-diol], less than 1000 nM; to `Nc1nc(NCCN2CCOCC2)cc(-c2cc(-c3ccc(O)cc3)ccc2O)n1` [Example 105, 3-[2-Amino-6-(2-morpholin-4-yl-ethylamino)-pyrimidin-4-yl]-biphenyl-4,4′-diol], 1000 to 20000 nM.
`Nc1nc(NCCc2ccccn2)cc(-c2cc(-c3ccc(O)cc3)ccc2O)n1` [Example 106, 3-[2-Amino-6-(2-pyridin-2-yl-ethylamino)-pyrimidin-4-yl]-biphenyl-4,4′-diol] gave an IC50 against KDR of less than 1000 nM.
On the same count and under the same terms, to `Nc1nc(-c2cc(-c3ccc(O)cc3)ccc2O)cc(N2CCSCC2)n1` [Example 107, 3-(2-Amino-6-thiomorpholin-4-yl-pyrimidin-4-yl)-biphenyl-4,4′-diol] belongs 1000 to 20000 nM; to `Nc1cccc(-c2ccc(O)c(-c3ccnc(N)n3)c2)c1` [Example 94, 3′-Amino-3-(2-amino-pyrimidin-4-yl)-biphenyl-4-ol], 1000 to 20000 nM; to `Nc1nc(Nc2ccc(O)cc2F)cc(-c2cc(-c3ccc(O)cc3)ccc2O)n1` [Example 119, 3-[2-Amino-6-(2-fluoro-4-hydroxyphenylamino)-pyrimidin-4-yl]-biphenyl-4,4′-diol], 1000 to 20000 nM.
On KDR, `Nc1nc(N[C@@H](CO)Cc2c[nH]c3ccccc23)cc(-c2cc(-c3ccc(O)cc3)ccc2O)n1` [Example 102, 3-{2-Amino-6-[2-hydroxy-1R-(1 H-indol-3-ylmethyl)-ethylamino]-pyrimidin-4-yl}-biphenyl-4,4′-diol] registered an IC50 of 1000 to 20000 nM.
The same measure, in the same setting: then `Nc1nc(N[C@@H](CO)Cc2c[nH]c3ccccc23)cc(-c2cc(-c3ccc(O)cc3)ccc2O)n1` [Example 96, 3-{2-Amino-6-[2-hydroxy-1R-(1H-indol-3-ylmethyl)-ethylamino]-pyrimidin-4-yl}-biphenyl-4,4′-diol], with 1000 to 20000 nM.
For the molecule `COc1cccc(CNc2cc(-c3cc(-c4ccc(O)cc4)ccc3O)nc(N)n2)c1` [Example 117, 3-[2-Amino-6-(3-methoxy-benzylamino)-pyrimidin-4-yl]-biphenyl-4,4′-diol], the IC50 at KDR is less than 1000 nM.
`CC(C)(C)OC(=O)n1cccc1-c1ccc(O)c(-c2ccnc(N)n2)c1` [Example 95, 2-[3-(2-Amino-pyrimidin-4-yl)-4-hydroxy-phenyl]-pyrrole-1-carboxylic acid t-butyl ester] came in with an IC50 on KDR of 1000 to 20000 nM.
For the molecule `NC(=S)N/N=C/c1cc(-c2cccc(C(=O)O)c2)ccc1O` [Example 17, 5-(3-Carboxyphenyl)salicylaldehyde thiosemicarbazone], the IC50 in test [1] was 500 to 2000 nM; on CDK5 complexed with p25, 2000 to 5000 nM.
As to `NC(=S)N/N=C/c1cc(-c2cccc(CO)c2)ccc1O` [Example 8, 5-(3-Hydroxymethylphenyl)salicylaldehyde thiosemicarbazone], the IC50 (in test [1]; at CDK5 complexed with p25) was greater than 5000 nM in each case.
On to `Nc1cccc(-c2cc(-c3ccnc(N)n3)ccc2O)n1` [Example 71, 2-(2-Aminopyridin-6-yl)-4-(2-aminopyrimidin-4-yl)-phenol], for which the IC50 (in test [1]; at CDK5 complexed with p25) was less than 500 nM each time.
In the case of `COc1ccc(-c2ccc(O)c(/C=N/NC(N)=S)c2)cc1F` [Example 14, 5-(3-Fluoro-4-methoxyphenyl)salicylaldehyde thiosemicarbazone], the IC50 was in the range of 2000 to 5000 nM in test [1] and 500 to 2000 nM at CDK5 complexed with p25.
For `NC(=O)N/N=C/c1cc(-c2ccccc2)ccc1O` [Example 5, 5-Phenylsalicylaldehyde semicarbazone hydrochloride] the same measures were 500 to 2000 nM and less than 500 nM.
For the molecule `Nc1cccc(-c2cc(-c3ccc(O)cc3)ccc2O)n1` [Example 49, 3-(6-Amino-pyridin-2-yl)-biphenyl-4,4′-diol], the IC50 (in test [1]; on CDK5 complexed with p25) was less than 500 nM throughout.
On to `NC(=O)N/N=C/c1cc(-c2ccc(O)cc2)c(O)cc1O` [Example 29, 4-Hydroxy-5-(4-hydroxyphenyl)salicylaldehyde semicarbazone hydrochloride], for which the IC50 in test [1] is 500 to 2000 nM; on CDK5 complexed with p25 it was greater than 5000 nM.
Regarding `Nc1ccc(-c2ccc(O)c(-c3ccnc(N)n3)c2)cn1` [Example 65, 4-(6-Amino-pyridin-3-yl)-2-(2-amino-pyrimidin-4-yl)-phenol], the IC50 in test [1] was less than 500 nM; at CDK5 complexed with p25, 500 to 2000 nM.
Turning to `Cc1cc(-c2cc(-c3ccc(O)cc3)ccc2O)nc(N)n1` [Example 47, 3-(2-Amino-6-methyl-pyrimidin-4-yl)-biphenyl-4,4′-diol], the IC50 (in test [1]; on CDK5 complexed with p25) was less than 500 nM each time.
Regarding `Nc1nc(NCCCCCO)cc(-c2cc(-c3ccc(O)cc3)ccc2O)n1` [Example 77, 3-[2-Amino-6-(5-hydroxy-pentylamino)-pyrimidin-4-yl]-biphenyl-4,4′-diol], the IC50 (in test [1]; at CDK5 complexed with p25) was less than 500 nM throughout.
As to `Nc1nc(Cl)cc(-c2cc(-c3ccc(O)cc3)ccc2O)n1` [Example 54, 3-(2-Amino-6-chloro-pyrimidin-4-yl)-biphenyl-4,4′-diol], the IC50 (in test [1]; on CDK5 complexed with p25) was less than 500 nM each time.
Consider `NC(=S)N/N=C/c1cc(CCC(=O)O)ccc1O` [Example 40, 3-(3-Formyl-4-hydroxyphenyl)propionic acid, thiosemicarbazone], for which the IC50 (in test [1]; at CDK5 complexed with p25) was less than 500 nM in each case.
Turning to `NC(=S)N/N=C/c1cc(-c2cccnc2)ccc1O` [Example 31, 5-(3-Pyridyl)salicylaldehyde thiosemicarbazone], the IC50 in test [1] is 500 to 2000 nM; on CDK5 complexed with p25, less than 500 nM.
As for `Nc1cccc(-c2ccc(O)c(-c3ccnc(N)n3)c2)n1` [Example 64, 4-(6-Amino-pyridin-2-yl)-2-(2-amino-pyrimidin-4-yl)-phenol], the IC50 (in test [1]; at CDK5 complexed with p25) was less than 500 nM throughout.
As for `NC(=S)N/N=C/c1cc(-c2ccc(CO)cc2)ccc1O` [Example 10, 5-(4-Hydroxymethylphenyl)salicylaldehyde thiosemicarbazone], the IC50 (in test [1]; at CDK5 complexed with p25) was greater than 5000 nM throughout.
In the case of `NC(=S)N/N=C/c1cc(-c2cccs2)ccc1O` [Example 33, 5-(2-Thienyl)salicylaldehyde thiosemicarbazone], the IC50 was less than 500 nM in test [1] and 500 to 2000 nM on CDK5 complexed with p25.
Regarding `NC(=O)N/N=C/c1cc(-c2cccc(C(=O)O)c2)ccc1O` [Example 18, 5-(3-Carboxyphenyl)salicylaldehyde semicarbazone hydrochloride], the IC50 in test [1] is 500 to 2000 nM; on CDK5 complexed with p25 it was less than 500 nM.
For `NC(=S)N/N=C/c1c(O)ccc2ccccc12` [Example 42, 2-[(2-Hydroxy-1-naphthyl)methylidene]hydrazine-1-carbothioamide], the IC50 (in test [1]; on CDK5 complexed with p25) was less than 500 nM each time.
With `Nc1ncc(-c2ccc(O)c(-c3ccnc(N)n3)c2)cn1` [Example 66, 2-(2-Amino-pyrimidin-4-yl)-4-(2-amino-pyrimidin-5-yl)-phenol], the IC50 (in test [1]; on CDK5 complexed with p25) was 500 to 2000 nM throughout.
In the case of `COc1cccc(-c2ccc(O)c(/C=N/NC(N)=S)c2)c1` [Example 6, 5-(3-Methoxyphenyl)salicylaldehyde thiosemicarbazone], the IC50 (in test [1]; on CDK5 complexed with p25) was 2000 to 5000 nM each time.
In the case of `Nc1nccc(-c2c(O)ccc3ccccc23)n1` [Example 46, 2-Amino-4-[1-(2-hydroxynaphthyl)]pyrimidine], the IC50 in test [1] is greater than 5000 nM; at CDK5 complexed with p25 it was 2000 to 5000 nM.
On to `Nc1nccc(-c2ccc(O)c(-c3ccnc(N)n3)c2)n1` [Example 68, 2,4-Bis-(2-amino-pyrimidin-4-yl)-phenol], for which the IC50 (in test [1]; at CDK5 complexed with p25) was less than 500 nM each time.
